In general, IC50 refers to the concentration needed to halve the response being measured. Usually IC90 stands for the point of the concentration-response curve where the effect stands at 90%.

This is an account of results in ChEMBL document CHEMBL4483862, “Open-source discovery of chemical leads for next-generation chemoprotective antimalarials” (2018).

In this assay the test system is Plasmodium berghei. The assay can be described thus: Luciferase/luciferin-expressing antifolate-resistant parasites were used to infect a culture of HepG2 cells that were pre-incubated with compounds. Infected hepatocytes emit light due to the luciferase reaction. Assay results are presented as the percent inhibition of light emission compared to control. […]. The class given is functional. The settings on record: sporozoite; for IC50: read-out: LUCIFERASE INFECTION ASSAY - IC50; for IC90: read-out: LUCIFERASE INFECTION ASSAY - IC90.

For the molecule `CCOc1ccc(/C=C/C(=O)C(C(N)=O)=C2SCCS2)cc1`, the IC50 was more than 10 µM and the 90% effect concentration (IC90) was more than 10 µM.
As for `O=C(CN1C(=O)C(=O)N(C2CCCC2)C1=O)Nc1cc(Cl)ccc1[N+](=O)[O-]`, the IC50 is more than 10 µM and the IC90 was more than 10 µM.
In the case of `CCOc1cc(N2CCOCC2)c(OCC)cc1NC(=O)COc1ccc(-c2nnco2)cc1`, the IC50 is more than 10 µM and the IC90 is more than 10 µM.
Take `CC(OC(=O)C1CC1)C(=O)Nc1ccnn1C(C)C` (stereo not given): the IC50 is more than 10 µM and the IC90 is more than 10 µM.
As to `C/C(N)=C(/C#N)C(=O)COC(=O)CCN1C(=O)C2CC=CCC2C1=O` (stereo not given), the IC50 was more than 10 µM and the IC90 is more than 10 µM.
In the case of `N#Cc1cc(C(=O)c2cc(F)ccc2OC(=O)C2(c3ccccc3)CC2)cn(Cc2ccccc2)c1=O`, the IC50 was more than 10 µM and the IC90 was more than 10 µM.
As to `CCC(CC)c1nnc(NC(=O)/C=C/c2cn(-c3ccccc3)nc2-c2ccc(F)cc2)s1`, the IC50 was more than 10 µM and the IC90 was more than 10 µM.
As for `O=[N+]([O-])c1cccc2nc(/C=C/c3nn(Cc4ccccc4)cc3-c3cccnc3)ccc12`, the IC50 was more than 10 µM and the IC90 is more than 10 µM.
In the case of `Cc1cc(C)cc(N(C(=O)Cc2coc3cc(C)ccc23)c2nc(-c3ccc(F)cc3)cs2)c1`, the IC50 was more than 10 µM and the IC90 was more than 10 µM.
`CCOc1ncccc1C(=O)NCC(c1ccc(OC)cc1)N1CCCCC1` (stereo not given): the IC50 is more than 10 µM and the IC90 is more than 10 µM.
In the case of `COc1ccc(-c2nnc(SCC(=O)Nc3cc(-c4cc(C)c(C)cc4C)nn3-c3ccccc3)n2C(C)C)cc1`, the IC50 is more than 10 µM and the IC90 is more than 10 µM.
As to `CC(=O)Nc1sc2c(c1C(=O)OCC(=O)Nc1cc(S(=O)(=O)N3CCOCC3)ccc1Cl)CCCC2`, the concentration for half-maximal inhibition (IC50) is more than 10 µM and the IC90 is more than 10 µM.
Consider `Cc1cc(C(C)(C)C)ccc1OC(=O)c1sc2nc3n(c(=O)c2c1C)CCCCC3`, for which the IC50 was more than 10 µM and the IC90 was more than 10 µM.
In the case of `Cc1cc(O)c(CN2CCN(S(=O)(=O)/C=C/c3ccccc3)CC2)cc1C(C)C`, the IC50 was more than 10 µM and the IC90 was more than 10 µM.
For `COCC(C)n1c(C)cc(C(=O)COC(=O)[C@@H]2CCCN2C(=O)c2cccs2)c1C` (stereo not given in full), the IC50 is more than 10 µM and the IC90 is more than 10 µM.
For the molecule `O=C1/C(=C\Nc2nnc(-c3ccccc3)c(-c3ccccc3)n2)c2ccccc2C(=O)N1c1cccc(C(F)(F)F)c1`, the IC50 was more than 10 µM and the IC90 is more than 10 µM.
Regarding `CC(C)N(C(=O)CN1CCN(c2ccccc2Cl)CC1)c1ccc(Nc2ccccc2)cc1`, the IC50 is 4.84 µM and the IC90 was more than 10 µM.
Consider `CCOc1ccc(OCc2ccc(C(=O)NNC3CC(=O)N(CCOC)C3=O)cc2)cc1` (stereo not given), for which the IC50 is more than 10 µM and the IC90 is more than 10 µM.
With `CCCCC(=O)OCC(=O)Nc1nc(-c2ccc(C)cc2O)cs1`, the concentration for half-maximal inhibition (IC50) is more than 10 µM and the IC90 is more than 10 µM.
`Cc1ccc(O)c(-c2cc(-c3ccccc3)c3ccccc3n2)c1`: the IC50 was more than 10 µM and the IC90 is more than 10 µM.
`COc1ccc(CNC(=O)Cn2ncc(Cl)c(Cl)c2=O)cc1OC`: the IC50 was more than 10 µM and the IC90 was more than 10 µM.
With `C=CCN(CC(=O)NCc1ccc2c(c1)OCO2)S(=O)(=O)c1ccc(Cl)c(Cl)c1`, the IC50 was more than 10 µM and the IC90 was more than 10 µM.
For the molecule `CN(CC(=O)Nc1ccc(N2CCOCC2)cc1)Cn1nc(-c2cccs2)n(CC2CCCO2)c1=S` (stereo not given), the IC50 is more than 10 µM and the IC90 was more than 10 µM.
Take `NC(=O)c1c(NC(=O)COC(=O)C2=NN(c3ccccc3)C(=O)CC2)sc2c1CCC2`: the IC50 is more than 10 µM and the IC90 was more than 10 µM.
On to `O=C(COC(=O)c1cc(-c2ccc(Cl)cc2)nc2ccccc12)Nc1cc(C(F)(F)F)ccc1-n1cncn1`, for which the IC50 was more than 10 µM and the IC90 is more than 10 µM.
`COc1ccc(Br)cc1/C=C/c1ccc2c([N+](=O)[O-])cccc2n1`: the IC50 is more than 10 µM and the IC90 is more than 10 µM.
Turning to `COc1cccc(N2C(=O)CC(n3nc(Nc4cccc(C)c4)sc3=S)C2=O)c1` (stereo not given), the IC50 was more than 10 µM and the IC90 is more than 10 µM.
As for `FC(F)Sc1ccc(NC(=S)NCC(c2ccco2)N2CCCCC2)cc1` (stereo not given), the IC50 was 6.18 µM and the IC90 is more than 10 µM.
On to `O=C(CN(Cc1ccco1)C(=O)c1ccc(-c2cccc(C(F)(F)F)c2)o1)Nc1ccccc1Br`, for which the IC50 was more than 10 µM and the IC90 was more than 10 µM.
As for `O=C(NNC(=O)c1ccccc1F)c1ccc(N2CCCC2=O)cc1`, the IC50 was more than 10 µM and the IC90 is more than 10 µM.
As to `CCCn1c(SCC2=C(C(=O)OCC)C(C)NC(=O)N2)nc2sc3c(c2c1=O)CCC(C(C)(C)CC)C3` (stereo not given), the IC50 is more than 10 µM and the IC90 is more than 10 µM.
Regarding `Nn1c(SC2CCCCC2=O)nnc1C1CCCCC1` (stereo not given), the IC50 is more than 10 µM and the IC90 was more than 10 µM.
Turning to `COc1ccc(N2C(=O)/C(=C\NC3CCCCC3C)c3ccccc3C2=O)cc1OC` (stereo not given), the IC50 is more than 10 µM and the IC90 was more than 10 µM.
With `O=C(CN1CCN(C(=O)/C=C/c2ccccc2[N+](=O)[O-])CC1)Nc1ccc(Cl)c(C(F)(F)F)c1`, the IC50 is more than 10 µM and the IC90 is more than 10 µM.
As for `CN(C)CCNS(=O)(=O)c1ccc(Cl)c([N+](=O)[O-])c1`, the IC50 was more than 10 µM and the IC90 was more than 10 µM.
For `CCOC(=O)c1ccc2c(c1)nc(-c1ccc(Sc3ccc(C)cc3)c([N+](=O)[O-])c1)n2CC`, the IC50 is more than 10 µM and the IC90 is more than 10 µM.
As to `O=[N+]([O-])c1c[nH]c(-c2csc(-n3nccc3C(F)(F)F)n2)c1`, the IC50 was 1.82 µM and the IC90 worked out at 4.09 µM.
For `O=C(Cc1ccsc1)NNC(=O)c1cccc(S(=O)(=O)Nc2cccc(C(F)(F)F)c2)c1` the same measures were more than 10 µM and more than 10 µM.
With `CC(=O)Nc1ccc(Sc2ccc(S(C)(=O)=O)cc2[N+](=O)[O-])cc1`, the IC50 was more than 10 µM and the IC90 was more than 10 µM.
Consider `Cc1ccc(S(=O)(=O)N2CCCCC2)cc1NC(=O)C[N+]12CCN(CC1)CC2`, for which the IC50 was more than 10 µM and the IC90 was more than 10 µM.
As to `O=C1CSC(=O)N1CCN=Cc1c(O)n(-c2ccc(Cl)cn2)c(=O)c2ccccc12`, the IC50 is more than 10 µM and the 90% effect concentration (IC90) was more than 10 µM.
On to `Cc1cc(C)cc(N(CCC#N)C(=O)CSc2nc3cc(Cl)ccc3c(=O)n2Cc2ccccc2)c1`, for which the IC50 is more than 10 µM and the concentration for an effect of 90% (IC90) was more than 10 µM.
For `O=C(OCc1cccc2ccccc12)C1(c2ccccc2)CCN(S(=O)(=O)c2ccccc2)CC1`, the IC50 turned out to be 4.79 µM and the IC90 is more than 10 µM.
With `O=C(c1cc(C(=O)N2CCCC2)c2nc3scc(-c4ccccc4)c3c(=O)n2c1)c1ccccc1O`, the IC50 was more than 10 µM and the IC90 was more than 10 µM.
Regarding `Cc1cc(C(=O)COn2nnc3ccc(S(=O)(=O)N4CCOCC4)cc32)c(C)n1C`, the IC50 was more than 10 µM and the IC90 is more than 10 µM.
For `COc1ccc(C)cc1N(CC(=O)Nc1ccccc1C(=O)NCCc1ccccc1)S(=O)(=O)c1ccccc1`, the IC50 is more than 10 µM and the IC90 was more than 10 µM.
For `Cc1ccc(CN(C)c2ccc([N+](=O)[O-])cc2Cl)o1`, the IC50 is more than 10 µM and the IC90 is more than 10 µM.
Take `COc1cc2c(cc1NC(=O)C(C)N1CCN(C/C=C/c3ccccc3)CC1)oc1ccccc12` (stereo not given): the IC50 is 9.73 µM and the IC90 is more than 10 µM.
For `O=C(CCCSc1nc2ccccc2s1)Nc1ccc(S(=O)(=O)NC2=NCCCCC2)cc1` the same measures were more than 10 µM and more than 10 µM.
For the molecule `CCOc1cc(N2CCOCC2)c(OCC)cc1NC(=O)c1cc(Cl)c(OC)c(OC)c1`, the IC50 is more than 10 µM and the IC90 was more than 10 µM.
As for `CCN1CCCC1CNCC(=O)Nc1cc(Cl)ccc1C#N` (stereo not given), the IC50 is more than 10 µM and the IC90 was more than 10 µM.
Take `N#Cc1cc([N+](=O)[O-])ccc1Sc1nnc(C2COc3ccccc3O2)n1-c1ccccc1` (stereo not given): the IC50 is more than 10 µM and the IC90 is more than 10 µM.
As to `CCC1CCc2sc(C(=O)NN)cc2C1` (stereo not given), the IC50 is more than 10 µM and the IC90 is more than 10 µM.
As for `Cc1ccccc1/N=C1\SCC(C)(C)N1C(=O)c1ccccc1OCc1ccccc1`, the IC50 is more than 10 µM and the IC90 was more than 10 µM.
`O=[N+]([O-])c1ccc2nc3c(c(-c4ccccc4)c2c1)CSc1ccccc1-3`: the IC50 is more than 10 µM and the concentration for an effect of 90% (IC90) was more than 10 µM.
Regarding `O=C(OCC(=O)N1CCN(C(=O)c2ccco2)CC1)c1cccc(NS(=O)(=O)c2ccc(F)c(F)c2)c1`, the IC50 was more than 10 µM and the IC90 was more than 10 µM.
With `O=[N+]([O-])c1cccc(-c2csc(-n3nccc3C(F)(F)F)n2)c1`, the IC50 is more than 10 µM and the IC90 was more than 10 µM.
`COc1cccc(-n2c(=O)c3ccccc3n3c(SCc4cc(=O)n5ccsc5n4)nnc23)c1`: the IC50 was more than 10 µM and the IC90 is more than 10 µM.
On to `Cc1nc2cc(Nc3nc(CN4CCOCC4)nc4scc(-c5ccccc5)c34)ccc2n1-c1ccccc1`, for which the IC50 is more than 10 µM and the 90% effect concentration (IC90) was more than 10 µM.
For `COc1cc(/C=C/C(=O)OC(C(=O)c2c[nH]c3ccccc23)c2ccccc2)cc(OC)c1OC` (stereo not given), the IC50 is more than 10 µM and the IC90 was more than 10 µM.
As to `COc1cccc(N(C)C(=O)c2nn(Cc3ccccc3)c(=O)c3ccccc23)n1`, the IC50 was more than 10 µM and the IC90 was more than 10 µM.
As for `COC(=O)c1cc(C(=O)OCC(=O)NCCC2=CCCCC2)cc([N+](=O)[O-])c1`, the IC50 is more than 10 µM and the IC90 was more than 10 µM.
For `COc1ccccc1N(CCC#N)C(=O)COC(=O)/C=C/c1ccc(OC(F)F)cc1`, the IC50 is more than 10 µM and the IC90 was more than 10 µM.
For `COc1ccc(C(=O)Nc2cccc(/C=C/C(=O)c3ccc(C4CCCCC4)cc3)c2)cc1`, the IC50 was 7.51 µM and the IC90 amounted to 9.2 µM.
Regarding `COc1ccc2cc(-c3nc4ccc(Cl)cc4c(-c4ccccc4F)c3C)ccc2c1`, the IC50 worked out at 6.1 µM and the IC90 is more than 10 µM.
